Data published in patent publication US20160227774A1 (priority 2015, published 2016).
“And” between values parts separate entries of the source, which are not always exact repeats. Equal values may be shown once. Where a name gives a salt, the structure may show the parent alone. Read-outs that look alike come from different tables or passages of the source.

Tests used:
[1] = tested on: Ca. Liberibacter asiaticus; format: in vivo, Candidatus Liberibacter asiaticus; conditions: for CT, 1 (mean CT values 1-week after injection) / CT, 0 (mean CT values prior to injection): 4 trees; for CT, 0 (mean CT values prior to injection): baseline; for Effect on Las bacterial populations (in words): second trial, statistical significance only in the first trial
[2] = tested on: Candidatus Liberibacter asiaticus (Las); format: in vivo; conditions: Example 6; Valencia sweet orange (4-year); BABA 0.2-1.0 mM, 2-DDG 100 μM; foliar spraying
[3] = tested on: Candidatus Liberibacter asiaticus (Las); format: in vivo
[4] = tested on: β-1,3-glucanase gene (PR-2), calS1, pp2; format: in vivo, Citrus sinensis; conditions: for PR-2, calS1 or pp2 gene expression (in words): AA 60 μM, INA 0.1 mM
HLB disease = experiment: Trial I (Example 3): HLB disease severity (sAUDPS), Midsweet orange, foliar spray; format: in vivo, Citrus sinensis; conditions: end of the experiment
[5] = tested on: Candidatus Liberibacter asiaticus (Las); format: in vivo; remark: listed apart in the source
[6] = tested on: Candidatus Liberibacter asiaticus (Las); format: in vivo; conditions: BABA 1.0 mM, 2-DDG 100 μM; for Reduction of Las titer compared to control at the end of the experiments: Example 5, Murcott mandarin (10-year), foliar spraying
[7] = tested on: β-1,3-glucanase gene (PR-2), calS1, pp2; format: in vivo, Citrus sinensis; conditions: 2-DDG 100 μM
Midsweet orange [8] = tested on: Midsweet orange; set-up: species or system Citrus sinensis; conditions: in vivo
Midsweet orange [9] = format: in vivo, Citrus sinensis; conditions: BABA 150 μM, INA 0.5 mM, AA 600 μM, CuSO4 0.3 mM, alone or combined
[10] = Trial 1 (July, 2014), trunk injection SA 32, OA 40, PPD 40, ICD 67, OTC 50 mg ai/tree
[11] = Trial 2 (September, 2014), trunk injection SA 8, OTC 7, OA, PPD, ICD, AA, BABA 5 mg ai/tree
[12] = November 2013, BABA 15 μM, INA 0.1 mM, AA 60 μM
[13] = November 2013, BABA 0.2 mM, INA 0.1 mM, AA 60 μM, 2-DDG 10 μM
[14] = November 2013, BABA 1.0 mM, INA 0.5 mM, BTH 1.0 mM, AA 600 μM, 2-DDG 100 μM, alone or combined
[15] = October 2014 (end of the experiment), BABA 0.2 mM, INA 0.1 mM, AA 60 μM, 2-DDG 10 μM
[16] = October 2014 (end of the experiment), BABA 1.0 mM, INA 0.5 mM, BTH 1.0 mM, AA 600 μM, 2-DDG 100 μM, alone or combined

| SMILES | ΔCT = CT, 1 − CT, 0 [1, 10] | CT, 1 (mean CT values 1-week after injection) [1, 10] | CT, 0 (mean CT values prior to injection) [1, 10] | ΔCT = CT, 1 − CT, 0 [1, 11] | CT, 1 (mean CT values 1-week after injection) [1, 11] | CT, 0 (mean CT values prior to injection) [1, 11] | Effect on Las bacterial titer versus control one week after injection (in words) ([1]; trunk injection, both trials) | Las population [5, 13] | Las population [5, 15] | further results |
| --- | --- | --- | --- | --- | --- | --- | --- | --- | --- | --- |
| O=C(O)c1ccccc1O [SA, salicylic acid] | 1.73 | 25.34 | 23.61 | 0.95 | 24.88 | 23.93 | significantly reduced |  |  | ΔCT compared with that of OTC (in words) ([1]; trunk injection): not significantly different |
| O=P([O-])([O-])O.[K+].[K+] [PPD, potassium phosphate dibasic, reference compound] | 2.64 | 26.56 | 23.92 | 0.34 | 23.63 | 23.29 |  |  |  | Effect on Las bacterial populations (in words) ([1]; trunk injection): moderately reduced |
| O=[N+]([O-])NC1=NCCN1Cc1ccc(Cl)nc1 [ICD, imidacloprid] | 0.08 | 24.50 | 24.42 | 0.13 | 24.02 | 23.89 |  |  |  | Effect on Las bacterial titer versus control one week after injection (in words) ([1]; in vivo): did not statistically significantly reduce |
| CC(N)CC(=O)O (racemic) [BABA, β-aminobutyric acid] |  |  |  | 0.50 | 22.60 | 22.10 | greatly decreased | (3.45 ± 0.32) × 10^6 Cells/g of plant tissue | (5.84 ± 0.25) × 10^6 Cells/g of plant tissue | Reduction of Las titer compared to control at the end of the experiments [2]: 0.68 log unit per gram plant tissue; Reduction of Las titer compared to control at the end of the experiments ([3]; Example 3, Midsweet orange (7-year), BABA 15 μM-150 μM, foliar spraying): 0.63 log unit per gram plant tissue; Las population [3, 12]: (3.67 ± 0.59) × 10^6 Cells/g of plant tissue; Las population ([3]; November 2013, BABA 150 μM): (6.48 ± 0.61) × 10^6 Cells/g of plant tissue; PR-2 gene expression (in words) ([4]; BABA 150 μM, 6 days after treatment): no significant change; PR-2 gene expression compared to the negative control ([4]; in vivo): 3.0 fold; pp2 (phloem protein-2) or calS1 expression (in words) ([4]; in vivo): no effect; HLB disease severity (sAUDPS) reduced by, compared with the negative control (HLB disease; AA 60 μM, BABA 15 μM): 28.6%; HLB disease severity (sAUDPS) reduced by, compared with the negative control (HLB disease; BABA 150 μM): 21.4%; Reduction of Las titer compared to control at the end of the experiments ([5]; Example 4, Midsweet orange (8-year), BABA 0.2 mM, foliar spraying): 0.66 log unit per gram plant tissue; Las population [5, 14]: (4.23 ± 1.22) × 10^6 Cells/g of plant tissue; Las population [5, 16]: (0.95 ± 0.26) × 10^7 Cells/g of plant tissue; Reduction of Las titer compared to control at the end of the experiments [6]: 0.66 log unit per gram plant tissue |
| CN(C)[C@@H]1C(O)=C(C(N)=O)C(=O)[C@@]2(O)C(O)=C3C(=O)c4c(O)cccc4[C@@](C)(O)[C@H]3[C@H](O)[C@@H]12 [OTC, oxytetracycline hydrochloride, reference compound] | 1.33 | 29.28 | 27.95 | 0.90 | 25.54 | 24.64 |  |  |  |  |
| O=CC[C@@H](O)[C@H](O)[C@H](O)CO [2-DDG, 2-deoxy-D-glucose] |  |  |  |  |  |  |  | (4.45 ± 0.94) × 10^6 Cells/g of plant tissue | (0.91 ± 0.32) × 10^7 Cells/g of plant tissue | Reduction of Las titer compared to control at the end of the experiments [2]: 0.70 log unit per gram plant tissue; PR-2, pp2 or calS1 induction (in words) [7]: not able to induce; Las population [5, 14]: (2.64 ± 0.76) × 10^6 Cells/g of plant tissue; Las population [5, 16]: (4.17 ± 1.02) × 10^6 Cells/g of plant tissue; Fruit acidity (Midsweet orange [8]): 0.73 a percent citric acid and 0.67 a percent citric acid and 0.69 a percent citric acid and 0.66 a percent citric acid; Fruit brix (Midsweet orange [8]): 9.63 a and 10.41 a and 9.20 a and 10.10 a; Fruit brix acidity ratio (Midsweet orange [8]): 15.19 a and 13.19 a and 15.17 a and 13.33 a; Reduction of Las titer compared to control at the end of the experiments [6]: 0.66 log unit per gram plant tissue |
| O=C(O)c1cc(Cl)nc(Cl)c1 [INA, 2,6-dichloro-isonicotinic acid, reference compound] |  |  |  |  |  |  | did not statistically significantly reduce | (2.07 ± 0.33) × 10^6 Cells/g of plant tissue | (3.91 ± 0.85) × 10^6 Cells/g of plant tissue | Las population [3, 12]: (4.06 ± 0.25) × 10^6 Cells/g of plant tissue; Las population ([3]; October 2014 (end of the experiment), BABA 15 μM, INA 0.1 mM, AA 60 μM): (5.94 ± 0.36) × 10^6 Cells/g of plant tissue; PR-2, calS1 or pp2 gene expression (in words) [4]: not able to induce; Percent juice content (Midsweet orange [8]): 50.5 a and 51.1 a |
| O=C1O[C@H]([C@@H](O)CO)C([O-])=C1O.[Na+] [AA, L-Ascorbic acid sodium salt, reference compound] |  |  |  | −0.50 | 21.65 | 22.15 |  | (2.99 ± 0.95) × 10^6 Cells/g of plant tissue | (3.98 ± 0.81) × 10^6 Cells/g of plant tissue | Las population [3, 12]: (3.56 ± 0.57) × 10^6 Cells/g of plant tissue; PR-2, calS1 or pp2 gene expression (in words) [4]: not able to induce; HLB disease severity (sAUDPS) reduced by, compared with the negative control (HLB disease; AA 60 μM, BABA 15 μM): 21.3%; Fruit brix acidity ratio (Midsweet orange [8]; sodium salt): 14.87 a and 12.55 a; Percent juice content (Midsweet orange [8]; sodium salt): 53.3 a and 51.1 a; Las population ([6]; Feb.2015, AA 600 μM, INA 0.5 mM, BTH 1.0 mM): (3.12 ± 0.22) × 10^7 a Cells/g of leaf tissue |
| CSC(=O)c1cccc2nnsc12 [ASM, acibenzolar-S-methyl] |  |  |  |  |  |  |  |  |  | Effect on Las bacterial populations (in words) ([1]; trunk injection): moderately reduced |
| O=S(=O)([O-])[O-].[Cu+2] [CuSO4, Copper Sulphate] |  |  |  |  |  |  |  |  |  | Yield (Midsweet orange [9]; 2013): 28.4 c kg/tree; Yield (Midsweet orange [9]; 2014): 24.1 c kg/tree |
| O=C(O)C(=O)O [OA, oxalic acid] | 2.83 | 26.59 | 23.76 | 0.70 | 26.17 | 25.47 | significantly reduced |  |  | ΔCT compared with that of OTC (in words) ([1]; trunk injection): not significantly different |
